Reference: ChEMBL document CHEMBL2331386, “Design, synthesis and SAR of piperidyl-oxadiazoles as 11β-hydroxysteroid dehydrogenase 1 inhibitors” (Eur J Med Chem, 2013)

Experiments:
[1] = Half life in rat at 6 mg/kg, po; assay type: ADME, organism-based; parameters: dose 6 mg/kg, route oral; conditions: in vivo
[2] = (§1) Oral bioavailability in rat at 6 mg/kg; assay type: ADME, organism-based; conditions: in vivo
[3] = (§2) AUC (0 to t) in rat at 6 mg/kg, po; assay type: ADME, organism-based, Plasma; parameters: dose 6 mg/kg, route oral; conditions: plasma
[4] = Intrinsic clearance in human liver microsomes at 1 uM preincubated for 5 mins measured per mg protein by LC/MS/MS analysis; assay type: ADME, Microsome; conditions: read-out: CLH
CYP3A4 = CYP3A4 (Homo sapiens, UniProt P08684); test: Inhibition of CYP3A4 in human microsomes using midazolam as substrate at 10 uM after 5 mins; assay type: ADME, Microsome; conditions: probe midazolam
CYP2D6 = CYP2D6 (Homo sapiens, UniProt P10635); test: Inhibition of CYP2D6 in human microsomes using dextrpmethorphan as substrate at 10 uM after 5 mins; assay type: ADME, Microsome; conditions: probe dextromethorphan (printed: dextrpmethorphan)
[5] = molecular target: 11-beta-hydroxysteroid dehydrogenase 1 (Homo sapiens, UniProt P28845); test: Inhibition of human 11-beta HSD1 transfected in HEK293 cell microsomes assessed as decrease in [3H]cortisol generation using [3H]cortisone as substrate measured after 60 mins by scintillation proximity assay; parameters: species or system Microsome
[6] = (§3) Clearance in rat at 3 mg/kg, iv; assay type: ADME, organism-based; parameters: dose 3 mg/kg, route intravenous; conditions: in vivo
CYP1A2 = molecular target: T1, CYP1A2 (Homo sapiens, UniProt P05177); test: Inhibition of CYP1A2 in human microsomes using phenacetin as substrate at 10 uM after 5 mins; assay type: ADME, Microsome; conditions: probe phenacetin
T1 sequence (P05177 whole entry): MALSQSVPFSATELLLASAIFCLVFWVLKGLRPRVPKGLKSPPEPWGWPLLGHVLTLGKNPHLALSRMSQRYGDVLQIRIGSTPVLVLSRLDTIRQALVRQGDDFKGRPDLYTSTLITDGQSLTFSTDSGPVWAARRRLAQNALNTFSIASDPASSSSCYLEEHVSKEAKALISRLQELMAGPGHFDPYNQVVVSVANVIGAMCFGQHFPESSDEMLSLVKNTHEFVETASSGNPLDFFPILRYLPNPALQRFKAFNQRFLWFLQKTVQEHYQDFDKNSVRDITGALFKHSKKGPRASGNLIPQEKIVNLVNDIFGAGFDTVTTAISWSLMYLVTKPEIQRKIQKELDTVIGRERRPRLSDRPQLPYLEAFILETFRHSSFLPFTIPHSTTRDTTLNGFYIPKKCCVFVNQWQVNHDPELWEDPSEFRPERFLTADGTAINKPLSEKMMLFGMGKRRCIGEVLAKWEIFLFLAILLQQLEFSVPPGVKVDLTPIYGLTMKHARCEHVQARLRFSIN

Rattus norvegicus [7] = test: as §1; assay type: ADME, organism-based; conditions: in vivo
Rattus norvegicus [8] = test: as §2; assay type: ADME, organism-based, Plasma; parameters: dose 6 mg/kg, route oral; conditions: in vivo
Rattus norvegicus [9] = test: as §3; assay type: ADME, organism-based; parameters: dose 3 mg/kg, route intravenous; conditions: in vivo

Chain of CYP2D6 (P10635 whole entry): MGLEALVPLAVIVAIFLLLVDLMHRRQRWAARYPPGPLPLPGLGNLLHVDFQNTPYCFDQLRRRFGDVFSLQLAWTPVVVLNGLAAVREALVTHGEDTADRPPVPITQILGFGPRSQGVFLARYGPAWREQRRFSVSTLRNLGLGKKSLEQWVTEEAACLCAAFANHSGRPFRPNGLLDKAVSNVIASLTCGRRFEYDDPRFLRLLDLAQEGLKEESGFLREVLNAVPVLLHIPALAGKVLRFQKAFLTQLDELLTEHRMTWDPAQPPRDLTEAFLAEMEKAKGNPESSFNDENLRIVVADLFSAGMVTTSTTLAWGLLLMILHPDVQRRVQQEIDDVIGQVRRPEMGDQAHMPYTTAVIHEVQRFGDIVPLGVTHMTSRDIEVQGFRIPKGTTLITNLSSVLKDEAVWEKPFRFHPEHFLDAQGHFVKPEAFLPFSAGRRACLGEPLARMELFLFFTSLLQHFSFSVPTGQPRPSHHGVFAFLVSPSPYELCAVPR
Chain of CYP3A4 (P08684 whole entry): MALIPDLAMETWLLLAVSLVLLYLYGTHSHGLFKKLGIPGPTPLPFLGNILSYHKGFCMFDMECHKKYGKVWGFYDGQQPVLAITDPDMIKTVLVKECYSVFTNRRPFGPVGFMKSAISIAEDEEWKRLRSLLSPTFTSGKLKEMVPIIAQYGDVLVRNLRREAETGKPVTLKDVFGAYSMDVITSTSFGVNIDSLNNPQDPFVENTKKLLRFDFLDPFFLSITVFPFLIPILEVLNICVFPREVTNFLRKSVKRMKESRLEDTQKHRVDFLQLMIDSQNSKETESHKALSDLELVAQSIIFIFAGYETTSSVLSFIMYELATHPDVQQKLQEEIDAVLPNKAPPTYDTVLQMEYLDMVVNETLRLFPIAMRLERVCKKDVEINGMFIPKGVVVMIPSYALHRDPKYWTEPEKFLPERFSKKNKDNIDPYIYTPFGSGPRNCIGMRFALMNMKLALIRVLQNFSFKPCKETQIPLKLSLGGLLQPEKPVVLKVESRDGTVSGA
Chain of 11-beta-hydroxysteroid dehydrogenase 1 (P28845 whole entry): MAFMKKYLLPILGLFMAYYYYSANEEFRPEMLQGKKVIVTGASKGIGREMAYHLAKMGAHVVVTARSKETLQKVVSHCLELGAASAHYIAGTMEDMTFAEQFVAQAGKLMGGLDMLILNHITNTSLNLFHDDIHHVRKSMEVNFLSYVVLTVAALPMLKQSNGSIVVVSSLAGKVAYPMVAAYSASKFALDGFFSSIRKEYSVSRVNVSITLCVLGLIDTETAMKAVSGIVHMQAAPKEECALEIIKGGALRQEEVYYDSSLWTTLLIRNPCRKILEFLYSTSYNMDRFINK

IC50 [5] [nM]	SMILES	also measured
92	O=C(C1CC1)N1CCC[C@H](c2nc(-c3ccccc3)no2)C1	
326	O=C(C1CCC1)N1CCC[C@H](c2nc(-c3ccccc3)no2)C1	
71	O=C(C1CCCCC1)N1CCC[C@H](c2nc(-c3ccccc3)no2)C1	half-life [1]: 1.3 h; F (Rattus norvegicus [7]): 36%; AUCt (Rattus norvegicus [8]): 25.3 µM·min; microsomal CLint at 1 µM [4]: 44 µL/min/mg; inhibition at 5 min, 10 µM (CYP3A4): 7.7%; inhibition at 5 min, 10 µM (CYP2D6): 12%; CL (Rattus norvegicus [9]): 24 mL/min/kg; inhibition at 5 min, 10 µM (CYP1A2): 16%
1480	O=C(C1CCCCCC1)N1CCC[C@H](c2nc(-c3ccccc3)no2)C1	
141	Cn1ccc2c(C(=O)N3CCC[C@H](c4nc(-c5ccccc5)no4)C3)cccc21	
715	Cn1cccc1C(=O)N1CCC[C@H](c2nc(-c3ccccc3)no2)C1	
659	O=C(c1ccco1)N1CCC[C@H](c2nc(-c3ccccc3)no2)C1	
3.3	Cc1c(Br)cccc1C(=O)N1CCC[C@H](c2nc(-c3ccccc3)no2)C1	half-life [1]: 2.1 h; F (Rattus norvegicus [7]): 25%; AUCt (Rattus norvegicus [8]): 34.1 µM·min; microsomal CLint at 1 µM [4]: 63 µL/min/mg; inhibition at 5 min, 10 µM (CYP3A4): 22%; inhibition at 5 min, 10 µM (CYP2D6): 0%; CL (Rattus norvegicus [9]): 16 mL/min/kg; inhibition at 5 min, 10 µM (CYP1A2): 0%
28	Cc1cccc(C(=O)N2CCC[C@H](c3nc(-c4ccccc4)no3)C2)c1Cl	
277	O=C(c1ccc(Cl)cc1)N1CCC[C@H](c2nc(-c3ccccc3)no2)C1	
741	O=C(c1cccc(Cl)c1)N1CCC[C@H](c2nc(-c3ccccc3)no2)C1	
853	O=C(c1ccccc1Cl)N1CCC[C@H](c2nc(-c3ccccc3)no2)C1	
435	Cc1ccccc1C(=O)N1CCC[C@H](c2nc(-c3ccccc3)no2)C1	
2370	O=C(c1ccccc1)N1CCC[C@H](c2nc(-c3ccccc3)no2)C1	
27	Cc1c(Cl)cccc1C(=O)N1CCC[C@H](c2nc(-c3ccccc3)no2)C1	

Second part, the compound before the results:

SMILES	IC50 [5] [nM]	also measured
Cc1c(Cl)cccc1S(=O)(=O)N1CCC[C@H](C(=O)NC2CCCCC2)C1	0.8	half-life [1]: 0.4 h; bioavailability [2]: 8%; AUC(0-t) [3]: 0.188 µM·h; microsomal CLint at 1 µM [4]: 209 µL/min/mg; inhibition at 5 min, 10 µM (CYP3A4): 73%; inhibition at 5 min, 10 µM (CYP2D6): 34%; clearance [6]: 130 mL/min/kg; inhibition at 5 min, 10 µM (CYP1A2): 16%
Cc1c(Cl)cccc1C(=O)N1CCC[C@H](c2nc(-c3ccc(Br)cc3)no2)C1	> 1000	
Cc1c(Cl)cccc1C(=O)N1CCC[C@H](c2nc(-c3cccc(Br)c3)no2)C1	310	
Cc1c(Cl)cccc1C(=O)N1CCC[C@H](c2nc(-c3ccccc3Br)no2)C1	825	
Cc1c(Cl)cccc1C(=O)N1CCC[C@H](c2nc(-c3ccccc3Cl)no2)C1	277	
Cc1c(Cl)cccc1C(=O)N1CCC[C@H](c2nc(-c3cccs3)no2)C1	> 1000	
Cc1c(Cl)cccc1C(=O)N1CCC[C@H](c2nc(-c3ccc(F)cc3)no2)C1	956	
Cc1c(Cl)cccc1C(=O)N1CCC[C@H](c2nc(C3CCCCC3)no2)C1	621	
Cc1c(Cl)cccc1C(=O)N1CCC[C@H](c2nc(C34CC5CC(CC(C5)C3)C4)no2)C1	> 1000	
CC1(C)C(C(=O)N2CCC[C@H](c3nc(-c4ccccc4)no3)C2)C1(C)C	793	
Cc1c(Cl)cccc1C(=O)N1CCC[C@H](c2noc(-c3ccccc3)n2)C1	107	
Cc1c(Cl)cccc1C(=O)N1CCC[C@H](n2nnc(-c3ccccc3)n2)C1	594	
Cc1c(Cl)cccc1C(=O)N1CCC[C@H](c2nnc(-c3ccccc3)[nH]2)C1	945	
Cc1c(Cl)cccc1C(=O)N1CCC[C@H](c2nnc(-c3ccccc3)o2)C1	1320	
